# Data published in patent publication US20260256962A1, “PRODRUGS FOR COMPOUNDS SPECIFIC TO GRANZYME B AND USES THEREOF” (CYTOSITE BIOPHARMA INC., priority 2021, published 2026).
# Columns and labels:
# [1] = biological target: T1, granzyme B (Homo sapiens, UniProt P10144); assay: In vivo PET/CT imaging of ^18F-granzyme B tracers in Matrigel mouse model of active and pro-form granzyme B; design: species or system female nude athymic mice; settings: nude athymic mice, i.v. radiotracer, static PET 75 minutes post-injection
# T1 construct: In Vivo Imaging of ^18F-Granzyme B Tracers in a Matrigel Mouse Model of Active and Pro-Form Granzyme B; purchased Enzo Life Sciences; host or cells: purified from human lymphocytes
# T1 sequence (P10144 21-247): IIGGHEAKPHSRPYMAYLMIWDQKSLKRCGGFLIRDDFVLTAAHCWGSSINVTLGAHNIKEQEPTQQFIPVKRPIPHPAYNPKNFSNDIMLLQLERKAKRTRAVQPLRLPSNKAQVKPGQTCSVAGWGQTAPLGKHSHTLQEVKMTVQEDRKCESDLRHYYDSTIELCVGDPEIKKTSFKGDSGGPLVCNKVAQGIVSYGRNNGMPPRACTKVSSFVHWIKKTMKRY
# Method: Female nude athymic (5-6 weeks, 15-30 g) mice were purchased from Jackson Laboratories. Both granzyme B (Human lymphocytes, Enzo Life Sciences) and inactivated human pro-form granzyme B (R&D Systems) were also commercially purchased. […] Each granzyme B enzyme were then brought up to a final concentration of 0.05 μg/ul using phosphate buffered saline (GE, Hyclone). Matrigel (65 μl, Corning) was mixed with 15 μl of 0.75 μg of each granzyme B enzyme (granzyme B and pro-form granzyme B) within each Eppendorf tube. The mice were then anesthetized with 2.5-3% isoflurane mixed with oxygen. Approximately 60-80 μl of granzyme B/Matrigel or the pro-form granzyme B/Matrigel were then injected using a 28-gauge×0.5-inch insulin syringe (Terumo) to form implants on the right and left shoulder flanks of the mice. […] After the radiotracer injection, the catheter was removed and measured for any remaining residual radioactivity. […] PET signal in the granzyme B implants were quantified by manually drawing regions of interest (ROIs) over the Matrigel implants based on the fused PET/CT images and the corresponding activity values were determined with VivoQuant (Invicro, Massachusetts). […] Target to background ratios (TBR's) were then calculated by dividing the granzyme B % ID/g value by the pro-form granzyme B % ID/g value.
# [2] = In vivo conversion of [^18F] granzyme B prodrugs to active form, radioactive metabolite screening of blood by radio-HPLC; design: species or system male CD-1 mice; settings: for conversion to the active form: in vivo, mouse plasma 5 minutes after administration (FIGS. 4C, 5C); for 5 min (% active form in blood) / 15 min (% active form in blood): male CD-1 mice, tail vein injection, radio-HPLC; for 5 min (% active form in blood): blood 5 minutes post-injection; for 15 min (% active form in blood): blood 15 minutes post-injection
# From the text: In vivo conversion of prodrugs was monitored by radioactive metabolite screening studies performed by injection of [^18F] granzyme B tracers in male CD-1 mice followed by analysis of extracted blood samples by radiometric HPLC. Results are reported as percent active form present in blood (Table 11).
# Briefly, male CD-1 mice were anesthetized prior to dosing with approximately 250 μCi [^18F] granzyme B tracer via tail vein injection (n=3 mice/timepoint). For blood collection, mice were sacrificed following cardiac exsanguination with a syringe pre-rinsed with sodium heparin at 5 and 15 minutes post-injection and samples were prepared for analysis via radio-HPLC.
# Blood samples were centrifuged at 1500 RCF for 5 minutes to allow for separation of plasma. Plasma samples were mixed with two volumes of methanol, vortexed for 30 seconds, and then centrifuged at 1500 RCF for 2 minutes. The supernatant was separated from the pellet and diluted 1:4 with PBS buffer pH 7.4 or water prior to analysis by HPLC.
# Samples were then analyzed on an Agilent 1290 series UPLC UV coupled with a BGO coincidence detector. The HPLC method utilized 2) Phenomenex Monolithic C18 (100×4.6 mm); 100-200 μL injection volume; flow-rate: 1.2 mL/min; solvent for A: 20 mM ammonium acetate in water; solvent for B: 100% methanol; gradient: initial hold at 5% B hold for 1 min, 5% to 40% in 7 min, hold 40% B for 2 min, increase from 40% to 95% B in 1 min, hold 95% B for 2 min, and then return to 5% B to reequilibrate.
SMILES,differentiation in Matrigel (granzyme B vs pro-form granzyme B implants) [1],conversion to the active form [2],5 min (% active form in blood) [2] [%],15 min (% active form in blood) [2] [%]
CC[C@H](C)[C@H](NC(=O)CCNC(=O)CCNC(=O)[C@@H](CCC(=O)O)NC(=O)CN1CCC(CN2CCN3CCN(CC2)CC(=O)[O][Al]([F])[O]C(=O)C3)CC1)C(=O)N[C@H]1CCc2cccc3c2N(C1=O)[C@H](C(=O)N[C@H]1CC(=O)O[C@@H]1OC)C3 [[^18F] 3-Al],poor differentiation in Matrigel,slow conversion to the active form,13,17
CC[C@H](C)[C@H](NC(=O)CCNC(=O)CCNC(=O)[C@@H](CCC(=O)O)NC(=O)CN1CCC(CN2CCN3CCN(CC2)CC(=O)[O][Al]([F])[O]C(=O)C3)CC1)C(=O)N[C@H]1CCc2cccc3c2N(C1=O)[C@H](C(=O)N[C@H]1CC(=O)O[C@H]1OC)C3 [[^18F] 4-Al],good differentiation in Matrigel,rapid conversion to the active form,92,94
CCO[C@@H]1OC(=O)C[C@@H]1NC(=O)[C@@H]1Cc2cccc3c2N1C(=O)[C@@H](NC(=O)[C@@H](NC(=O)CCNC(=O)CCNC(=O)[C@@H](CCC(=O)O)NC(=O)CN1CCC(CN2CCN4CCN(CC2)CC(=O)[O][Al]([F])[O]C(=O)C4)CC1)[C@@H](C)CC)CC3 [[^18F] 5-Al],–,–,98,100
CC[C@H](C)[C@H](NC(=O)COCCNC(=O)[C@@H](CCC(=O)O)NC(=O)[C@@H](CCC(=O)O)NC(=O)CN1CCC(CN2CCN3CCN(CC2)CC(=O)[O][Al]([F])[O]C(=O)C3)CC1)C(=O)N[C@H]1CCc2cccc3c2N(C1=O)[C@H](C(=O)N[C@H]1CC(=O)O[C@@H]1OC)C3 [[^18F] 6-Al],–,–,11,16
CC[C@H](C)[C@H](NC(=O)COCCNC(=O)[C@@H](CCC(=O)O)NC(=O)[C@@H](CCC(=O)O)NC(=O)CN1CCC(CN2CCN3CCN(CC2)CC(=O)[O][Al]([F])[O]C(=O)C3)CC1)C(=O)N[C@H]1CCc2cccc3c2N(C1=O)[C@H](C(=O)N[C@H]1CC(=O)O[C@H]1OC)C3 [[^18F] 7-Al],–,–,69,78
CCO[C@@H]1OC(=O)C[C@@H]1NC(=O)[C@@H]1Cc2cccc3c2N1C(=O)[C@@H](NC(=O)[C@@H](NC(=O)COCCNC(=O)[C@@H](CCC(=O)O)NC(=O)[C@@H](CCC(=O)O)NC(=O)CN1CCC(CN2CCN4CCN(CC2)CC(=O)[O][Al]([F])[O]C(=O)C4)CC1)[C@@H](C)CC)CC3 [[^18F] 8-Al],–,–,86,100
CC[C@H](C)[C@H](NC(=O)CCNC(=O)CCNC(=O)CN(CC(=O)O)C(=O)CN1CCC(CN2CCN3CCN(CC2)CC(=O)[O][Al]([F])[O]C(=O)C3)CC1)C(=O)N[C@H]1CCc2cccc3c2N(C1=O)[C@H](C(=O)N[C@H]1CC(=O)O[C@H]1OC)C3 [[^18F] 9-Al],–,–,90,100
